Results published in patent publication US20260167638A1, “PHARMACEUTICAL COMPOUND, SALTS THEREOF, FORMULATIONS THEREOF, AND METHODS OF MAKING AND USING SAME” (Genentech, Inc., priority 2018, published 2026).
Several values for one entry are separate records, joined by “and”; a condition that tells them apart may be missing. Equal values may be shown once. Read-outs that look alike come from different tables or passages of the source.

Columns and labels:
[1] = Example 19 crossover pharmacokinetics of four oral tablet formulations in fasted dogs; type: in vivo, beagle dogs; settings: Example 19, fasted dogs, 200 mg tablet PO; for concentration at 1 h: read-out: Plasma concentration of Compound I at 1 hour; for concentration at 24 h: read-out: Plasma concentration of Compound I at 24 hours
Protocol: Pharmacokinetics parameters of formulations of Compound I and its salts in dogs were determined by orally administering a test formulation tablet at 200 mg of active (Compound I or salt) per dog.
Blood samples were taken at various times after administration, plasma prepared, and submitted to analysis for parent drug using a qualified LC-MS-MS assay. Pharmacokinetics parameters derived from the plasma analytical data were determined using non-compartmental analysis.
Pharmacokinetics of Compound I was determined in pentagastrin-pretreated male beagle dogs following a single oral (PO) administration at 200 mg/tablet/dog in a 4-phase crossover study with a washout period of at least 7 days in between each phase. Five male non-naive purebred beagle dogs were used in each phase of study. All dogs were pretreated with pentagastrin (6 μg/kg intramuscular administrations) approximately 30 minutes before administration of test article.
Four tablet formulations of test article were assessed, each containing 200 mg test article (free base equivalent). Animals were fasted overnight prior to PO dosing through approximately 4 hours postdose. The tablet dose was administered orally, followed by approximately 10 mL of RO (reverse osmosis) water. Phase 1 animals were given tablets containing Compound I in nanosuspension formulation as described above, phase 2 animals were given tablets containing Compound I in jet-milled form as described above, and phase 4 animals received tablets containing Compound I mono-tosylate salt as described above. In phase 3, tablets including an amorphous solid dispersion as described above were crushed and suspended in water, then dosed to the animals. Each animal received one triturated tablet, which was administered orally by gavage as an aqueous suspension formulation. Blood samples were collected predose and at 0.25, 0.5 1, 2, 4, 8, 24, 36 and 48 hours after the oral dose. Plasma was harvested, and the concentration of Compound I in each sample was determined by a non-validated LC/MS/MS assay. The assay limit of quantitation was 1.02 to 5.1 ng/mL for Compound I.
Mean Compound I concentrations measured in plasma were used to construct semi-logarithmic plasma concentration-time curves (FIG. 13). Pharmacokinetic analysis was performed using a non-compartmental method.

[2] = Water sorption / dynamic vapor sorption (DVS) hygroscopicity; type: physicochemical
Protocol: The pKa value of Compound I free base was calculated (ACD Labs pKa DB, v10.0) as 2.12±0.33. Therefore, Compound I free base was considered as a very weak base that could be protonated by strong acids. […] A sample of Compound I free base was analyzed by powder x-ray diffraction and found to be crystalline without any readily detectable amorphous content. […] (onset temperature).
The maximum water uptake for the amorphous salt was about 40% whereas the maximum water uptake for the crystalline di-hydrochloride salt was higher, with about 54% uptake.
The hygroscopic nature of the besylate salt was examined by dynamic vapor sorption analysis (DVS). […] Below 80% relative humidity not much water was adsorbed.

[3] = individual subjects, LOQ 1.02 to 5.1 ng/mL, mono-tosylate salt
[4] = individual subjects, mono-tosylate salt
[5] = male, beagle, dog, plasma, po, 200 mg/tablet/dog, individual subjects, LOQ 1.02 to 5.1 ng/mL
[6] = male, beagle, dog, plasma, po, 200 mg/tablet/dog, mean, LOQ 1.02 to 5.1 ng/mL

- Plasma concentration of Compound I at 0.25 hours [1, 3]: 309 and 1500 and 2900 and 39.7 and 571
- Plasma concentration of Compound I at 0.5 hours [1, 3]: 3650 and 3910 and 5440 and 726 and 3520
- Plasma concentration of Compound I at 1 hour [1, 3]: 5470 and 7310 and 4880 and 5360
- Plasma concentration of Compound I at 8 hours [1, 3]: 3650 and 6910 and 2500 and 3060 and 1630
- Plasma concentration of Compound I at 24 hours [1, 3]: 597 and BLQ (3×)
- Plasma concentration of Compound I at 36 hours [1, 3]: 11.0 and 17.8 and BLQ (2×) and 842
- Plasma concentration of Compound I at 48 hours [1, 3]: BLQ (3×) and 200 and 10.1
- tmax [1, 4]: 1.00 h
- AUC(0-t) ([1]; male, beagle, dog, plasma, po, 200 mg, mean): 78500 ng·h/mL
- AUC ([1]; male, beagle, dog, plasma, po, 200 mg, mean, read-out: AUC0-rt): 78900 ng·h/mL
- Cmax ([1]; male, beagle, dog, plasma, po, 200 mg, mean, read-out: Cmax): 8100 ng/mL
- tmax ([1]; male, beagle, dog, plasma, po, 200 mg, mean, read-out: tmax): 1.8 h
- concentration at 1 h [1, 5]: 9450 ng/mL
- concentration at 24 h [1, 5]: 352 ng/mL
- concentration at 0.25 h ([1]; male, beagle, dog, plasma, po, 200 mg/tablet/dog, mean, LOQ 1.02 to 5.1 ng/mL, read-out: Plasma concentration of Compound I at 0.25 hours): 1060 ng/mL
- concentration at 0.5 h ([1]; male, beagle, dog, plasma, po, 200 mg/tablet/dog, mean, LOQ 1.02 to 5.1 ng/mL, read-out: Plasma concentration of Compound I at 0.5 hours): 3450 ng/mL
- concentration at 1 h [1, 6]: 6490 ng/mL
- concentration at 2 h ([1]; male, beagle, dog, plasma, po, 200 mg/tablet/dog, mean, LOQ 1.02 to 5.1 ng/mL, read-out: Plasma concentration of Compound I at 2 hours): 6960 ng/mL
- concentration at 4 h ([1]; male, beagle, dog, plasma, po, 200 mg/tablet/dog, mean, LOQ 1.02 to 5.1 ng/mL, read-out: Plasma concentration of Compound I at 4 hours): 6780 ng/mL
- concentration at 8 h ([1]; male, beagle, dog, plasma, po, 200 mg/tablet/dog, mean, LOQ 1.02 to 5.1 ng/mL, read-out: Plasma concentration of Compound I at 8 hours): 3550 ng/mL
- concentration at 24 h [1, 6]: 1070 ng/mL
- concentration at 36 h ([1]; male, beagle, dog, plasma, po, 200 mg/tablet/dog, mean, LOQ 1.02 to 5.1 ng/mL, read-out: Plasma concentration of Compound I at 36 hours): 290 ng/mL
- concentration at 48 h ([1]; male, beagle, dog, plasma, po, 200 mg/tablet/dog, mean, LOQ 1.02 to 5.1 ng/mL, read-out: Plasma concentration of Compound I at 48 hours): 105 ng/mL
- reversibility of water adsorption within the timeframe of observation [2]: essentially reversible
SMILES: Cc1ccc(S(=O)(=O)O)cc1.Cn1cc(-c2cn(-c3ccc(OC(F)(F)F)cc3)c(=O)c3ncn(C)c23)cn1 [mono-tosylate, 1-methyl-7-(1-methyl-1H-pyrazol-4-yl)-5-(4-(trifluoromethoxy)phenyl)-1,5-dihydro-4H-imidazo[4,5-c]pyridin-4-one, mono-tosylate salt]
- Plasma concentration of Compound I at 2 hours [1, 3]: 9370 and 10200 and 5680 and 5450 and 4130
- Plasma concentration of Compound I at 4 hours [1, 3]: 8040 and 12900 and 4590 and 4840 and 3480
- AUC0-last [1, 4]: 76500 ng·h/mL and 116000 ng·h/mL and 44300 ng·h/mL and 122000 ng·h/mL and 34200 ng·h/mL
- AUC0-rt [1, 4]: 76600 ng·h/mL and 116000 ng·h/mL and 44400 ng·h/mL and 123000 ng·h/mL and 34300 ng·h/mL
- Cmax [1, 4]: 9450 ng/mL and 12900 ng/mL and 7310 ng/mL and 5450 ng/mL and 5360 ng/mL
